The values that follow come from paper PMC11870035, “Discovery of Substituted 5-(2-Hydroxybenzoyl)-2-Pyridone Analogues as Inhibitors of the Human Caf1/CNOT7 Ribonuclease” (Molecules, 2024).

Each structure is given as a SMILES string.

T1 sequence (Q9UIV1 whole entry): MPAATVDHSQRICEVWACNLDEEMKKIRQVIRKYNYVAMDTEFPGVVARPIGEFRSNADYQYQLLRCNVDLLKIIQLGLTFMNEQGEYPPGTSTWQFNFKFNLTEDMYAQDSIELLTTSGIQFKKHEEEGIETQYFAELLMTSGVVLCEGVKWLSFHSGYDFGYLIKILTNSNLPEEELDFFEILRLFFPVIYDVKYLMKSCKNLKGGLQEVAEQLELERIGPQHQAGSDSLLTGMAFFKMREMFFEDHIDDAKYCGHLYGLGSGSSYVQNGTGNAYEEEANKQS

The first assay has as its target T1, human nuclease enzyme Caf1/CNOT7 (Homo sapiens, UniProt Q9UIV1). Description: fluorescence-based nuclease activity assay. It counts as biochemical. The following applies: mean ± standard error; 0.4 µM Caf1/CNOT7, 1 µM Flc-RNA substrate, 30 °C, 60 min; read-out: IC50 versus Caf1/CNOT7. The protocol: Purity of the compounds was verified by LC-MS. The inhibitory activity of the compounds was assessed using a fluorescence-based activity assay described before. Briefly, purified Caf1/CNOT7 was pre-incubated in the presence of compound or vehicle only (DMSO) before addition of a Fluorescein-labelled RNA oligonucleotide substrate. The composition of the final reaction mixture (10 µL) was: 0.4 µM Caf1/CNOT7, 1 µM Flc-RNA substrate, 20 mM Tris–HCl pH 7.9, 50 mM NaCl, 2 mM MgCl2, 10% glycerol, 1 mM β-mercaptoethanol and 5% DMSO. After incubation at 30 °C for 60 min, 10 µL probe mix (5 µM TAMRA-DNA probe, 1% SDS and 20 mM Tris–HCl pH 8.0, 0.5 mM EDTA) was added. Fluorescence intensity was measured using a BioTek Synergy HT plate reader (Agilent, Cheshire, UK) using the filters 485 ± 20 nm (excitation) and 528 ± 20 nm (emission). Raw data were analysed in Microsoft Excel and non-linear regression was carried out using GraphPad Prism 6. Statistical analysis (one-way ANOVA with post-hoc Dunnett’s test) was also carried out using GraphPad Prism.
On to `COc1cc(Cl)c(C)cc1-n1cc(C(=O)c2cc(Br)ccc2O)cc(C#N)c1=O` [Compound 1, 5-(5-bromo-2-hydroxybenzoyl)-1-(4-chloro-2-methoxy-5-methylphenyl)-2-oxo-1,2-dihydropyridine-3-carbonitrile], for which the IC50 was determined as 24.1 ± 3.3 µM.
In the case of `N#Cc1cc(C(=O)c2cc(Br)ccc2O)cn(-c2ccccc2Cl)c1=O` [Compound 3], the IC50 amounted to 65.6 ± 3.3 µM.
As to `N#Cc1cc(C(=O)c2cc(Br)ccc2O)cn(-c2ccccc2Oc2ccccc2)c1=O` [Compound 4], the IC50 was 39.3 ± 1.6 µM.
Same read-out and setting: as for `COc1ccc(-n2cc(C(=O)c3cc(Br)ccc3O)cc(C#N)c2=O)cc1` [Compound 5], the figure is 81.1 ± 5 µM; as for `COc1ccccc1-n1cc(C(=O)c2cc(Br)ccc2O)cc(C#N)c1=O` [Compound 6], 80.9 ± 9.2 µM.
Still for that read-out and setting: with `CCc1ccc(-n2cc(C(=O)c3cc(Br)ccc3O)cc(C#N)c2=O)cc1` [Compound 7] the figure was 39 ± 2.6 µM; with `N#Cc1cc(C(=O)c2cc(Br)ccc2O)cn(-c2ccc(Cl)cc2)c1=O` [Compound 8], 32.2 ± 1.6 µM; with `CCOC(=O)c1ccc(-n2cc(C(=O)c3cc(Br)ccc3O)cc(C#N)c2=O)cc1` [Compound 9], 33.2 ± 0.5 µM.
On the same count and under the same terms, as for `N#Cc1cc(C(=O)c2cc(Br)ccc2O)cn(-c2cccc(C(F)(F)F)c2)c1=O` [Compound 10], the figure is 42.1 ± 1.4 µM; as for `COc1cc(Cl)c(C)cc1-n1cc(C(=O)c2cc(F)ccc2O)cc(C#N)c1=O` [Compound 11], 33.6 ± 1.1 µM; as for `N#Cc1cc(C(=O)c2cc(Br)ccc2O)cn(-c2ccccc2)c1=O` [Compound 12], 108 ± 4 µM.
With `N#Cc1cc(C(=O)c2cc(Br)ccc2O)cn(-c2ccc(F)c(Cl)c2)c1=O` [Compound 13], the IC50 was found to be 47 ± 2.7 µM.
Same read-out and setting: as for `Cc1ccc(-n2cc(C(=O)c3cc(Br)ccc3O)cc(C#N)c2=O)cc1` [Compound 14], the figure is 57.5 ± 4.7 µM; as for `Cc1cccc(-n2cc(C(=O)c3cc(Br)ccc3O)cc(C#N)c2=O)c1` [Compound 15], 31.8 ± 1.8 µM; as for `Cc1ccccc1-n1cc(C(=O)c2cc(Br)ccc2O)cc(C#N)c1=O` [Compound 16], 44.5 ± 3.6 µM.
Same read-out and setting: as for `N#Cc1cc(C(=O)c2cc(Br)ccc2O)cn(-c2cc(Cl)cc(Cl)c2)c1=O` [Compound 17], the figure is 19.2 ± 1.1 µM.

The assay is the same for the next values; noted with them: ratio of IC50 values versus compound 1.
On to `COc1cc(Cl)c(C)cc1-n1cc(C(=O)c2cc(F)ccc2O)cc(C#N)c1=O` [Compound 11], for which the “fold lower potency compared to 1” value is on record as under 2 fold.
As for `N#Cc1cc(C(=O)c2cc(Br)ccc2O)cn(-c2ccccc2)c1=O` [Compound 12], the “fold lower potency compared to 1” value is given as 4–5 fold.

Another assay deals with T1, human nuclease enzyme Caf1/CNOT7.
Assay: not given
Details: method as in PMID 24170810. As to conditions: n = 3; read-out: originally reported IC50 versus Caf1/CNOT7; cited from earlier work.
For `COc1cc(Cl)c(C)cc1-n1cc(C(=O)c2cc(Br)ccc2O)cc(C#N)c1=O`, the IC50 is 14.6 ± 3.1 µM.

The next assay relates to Caf1/CNOT7.
Assay: not given
Also noted: method as in PMID 24170810. As to conditions: cited from earlier work.
For `COc1cc(Cl)c(C)cc1-n1cc(C(=O)c2cc(Br)ccc2O)cc(C#N)c1=O` [Compound 1, 5-(5-bromo-2-hydroxybenzoyl)-1-(4-chloro-2-methoxy-5-methylphenyl)-2-oxo-1,2-dihydropyridine-3-carbonitrile], the “activity in gel-based assay” value is reported as “confirmed” and the selectivity result was “selective to Caf1/CNOT7”.
